Numbered stars: 1 amine (or outer) side, 2 acyl side, 3 side chain; on linkers, the order of the positions; unused ones are H or OH. Bridge positions count the residues as written; N and C are the ends. Square brackets hold non-standard residues; d marks the D form. Peptide text beside a SMILES is read from it. X1 = CC(C)CN(CCC[C@H](N[*:1])C(=O)[*:2])CC(C)C; 2Nal = N[C@@H](Cc1ccc2ccccc2c1)C(=O)O; Cit = NC(=O)NCCC[C@H](N)C(=O)O; Dab = NCC[C@H](N)C(=O)O
Legend:
in vitro [1] = type: in vitro ADME; details: plasma
Method: 405 μl of plasma/albumin solution were placed in a polypropylene (PP) tube and spiked with 45 μl of compound from a 100 μM solution B, derived from 135 μl of PBS and 15 μl of 1 mM peptide in PBS, pH 7.4. 150 μl aliquots were transferred into individual wells of the 10 kDa filter plate (Millipore MAPPB 1010 Biomax membrane). For “0 minutes controls”: 270 μl of PBS were placed in a PP tube and 30 μl of stock solution B was added and vortexed. 150 μl of control solution was placed into one well of the filter plate and serves as “filtered control”.
Further 150 μl of control solution were placed directly into a receiver well (reserved for filtrate) and serve as “not-filtered control”. The entire plate including evaporation lid was incubated for 60 min at 37° C. Plasma samples (rat plasma: Harlan Sera lab UK, human plasma: Blutspendezentrum Zürich) were centrifuged at least for 2 h at 4300 rpm (3500 g) and 15° C. in order to yield 100 μl filtrate. For “serum albumin”-samples (freshly prepared human albumin: Sigma A-4327, rat albumin: Sigma A-6272, all at 40 mg/ml concentration in PBS) approximately 1 hour of centrifugation is sufficient. The filtrates in the receiver PP plate were analysed by LC/MS as followes: Column: Jupiter C18 (Phenomenex), mobile phases: (A) 0.1% formic acid in water and (B) acetonitrile, gradient: 5%-100% (B) in 2 minutes, electrospray ionization, MRM detection (triple quadrupole). The peak areas were determined and triplicate values are averaged. The binding is expressed in percent of the (filtered and not-filtered time point 0 min) control 1 and 2 by: 100−(100*T60/T0). The average from these values is then calculated (see ref. 9 below).

in vitro [2] = details: human
[3] = system: human red blood cells (hRBC); experiment: Hemolysis; type: cell-based
Summary of the method: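 Washed fresh human erythrocytes (20% v/v, about 0.9×10^9 cells/ml final) incubated with peptide at 100 μM for 1 h at 37° C. Supernatant diluted 20-fold and OD540 read. Percent hemolysis relative to 0.1% Triton X-100 in H2O (100%), with PBS alone as 0%.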

CXCR4 = CXCR4 (Homo sapiens, UniProt P61073); experiment: Ca2+-assay method 2 (Flexstation, SDF-1 induced calcium mobilization); type: cell-based; parameters: expressed in transfected cells; host or cells: mouse pre-B cell line 300-19; details: method 2 (Ex. 54-160), mouse pre-B cell line 300-19 with human CXCR4, 10 nM SDF-1; read-out: IC50 (nM) Ca^2+ assay
Chain of CXCR4 (P61073 whole entry): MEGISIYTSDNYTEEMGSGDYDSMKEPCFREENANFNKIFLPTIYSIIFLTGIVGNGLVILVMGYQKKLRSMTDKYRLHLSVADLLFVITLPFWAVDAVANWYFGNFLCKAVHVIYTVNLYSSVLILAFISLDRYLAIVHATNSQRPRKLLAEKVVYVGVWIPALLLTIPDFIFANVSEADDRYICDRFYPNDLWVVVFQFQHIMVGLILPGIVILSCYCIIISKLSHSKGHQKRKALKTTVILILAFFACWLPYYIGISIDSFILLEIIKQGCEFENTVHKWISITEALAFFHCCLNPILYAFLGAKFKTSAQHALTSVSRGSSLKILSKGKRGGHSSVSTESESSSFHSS
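For GI50 in this document: MTT reduction read as absorbance at 595 nm, blank-corrected and expressed as percent growth relative to the time-zero cell reading, triplicate wells per concentration.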

SMILES	half-life at 10 μM (in vitro [1]; human)	half-life at 10 μM (in vitro [1]; rat)	GI50 at 48 h (in vitro [2])	Hemolysis at 100 μM [3]	IC50 (CXCR4)
N=C(N)NCCC[C@@H]1NC(=O)[C@@H]2CSSC[C@H](NC(=O)[C@H](Cc3ccc4ccccc4c3)NC(=O)[C@H](CCCNC(=N)N)NC(=O)[C@H](CCCNC(=N)N)NC(=O)[C@H]3CCCN3C(=O)CNC1=O)C(=O)N[C@@H](Cc1ccc(O)cc1)C(=O)N[C@@H](CCC(N)=O)C(=O)N[C@@H](CC(=O)O)C(=O)N1CCC[C@@H]1C(=O)N1CCC[C@H]1C(=O)N[C@@H](Cc1ccc(O)cc1)C(=O)N[C@@H](CCCNC(=N)N)C(=O)N[C@@H](CCCNC(N)=O)C(=O)N2 [Ex. 85] (cyclo(YR[Cit]CRG[dP]RR[2Nal]CYQD[dP]P); disulfide 4-11)	2.77 h	> 5 h	94 µM	0%	2.7 nM
N=C(N)NCCC[C@@H]1NC(=O)[C@H](CCCNC(=N)N)NC(=O)[C@H]2CCCN2C(=O)CNC(=O)[C@H](CO)NC(=O)[C@@H]2CSSC[C@H](NC(=O)[C@H](Cc3ccc4ccccc4c3)NC1=O)C(=O)N[C@@H](Cc1ccc(O)cc1)C(=O)N[C@@H](CCC(N)=O)C(=O)N[C@@H](CCCCN)C(=O)N1CCC[C@@H]1C(=O)N1CCC[C@H]1C(=O)N[C@@H](Cc1ccc(O)cc1)C(=O)N[C@@H](CCCNC(=N)N)C(=O)N[C@@H](CCCNC(N)=O)C(=O)N2 [Ex. 101] (cyclo(YR[Cit]CSG[dP]RR[2Nal]CYQK[dP]P); disulfide 4-11)	> 5 h	4.12 h	74 µM	0.6%	1.28 nM
N=C(N)NCCC[C@@H]1NC(=O)[C@@H]2CSSC[C@H](NC(=O)[C@H](Cc3c[nH]c4ccccc34)NC(=O)[C@H](CCCNC(=N)N)NC(=O)[C@H](CCCNC(=N)N)NC(=O)[C@H]3CCCN3C(=O)CNC1=O)C(=O)N[C@@H](Cc1ccc(O)cc1)C(=O)N[C@@H](CCCNC(N)=O)C(=O)N[C@@H](CC(=O)O)C(=O)N1CCC[C@@H]1C(=O)N1CCC[C@H]1C(=O)N[C@@H](Cc1ccc(O)cc1)C(=O)N[C@@H](CCCNC(=N)N)C(=O)N[C@@H](CO)C(=O)N2 [Ex. 102] (cyclo(YRSCRG[dP]RRWCY[Cit]D[dP]P); disulfide 4-11)	4.25 h	4.08 h	33 µM	0.5%	8 nM
C[C@@H](O)[C@@H]1NC(=O)[C@H](CCCNC(=N)N)NC(=O)[C@H](Cc2ccc(O)cc2)NC(=O)[C@@H]2CCCN2C(=O)[C@H]2CCCN2C(=O)[C@H](CCCCN)NC(=O)[C@H](CCC(N)=O)NC(=O)[C@H](Cc2ccc(O)cc2)NC(=O)[C@@H]2CSSC[C@H](NC1=O)C(=O)N[C@@H](CCCNC(=N)N)C(=O)NCC(=O)N1CCC[C@@H]1C(=O)N[C@@H](CCN)C(=O)N[C@@H](CCCNC(=N)N)C(=O)N[C@@H](Cc1c[nH]c3ccccc13)C(=O)N2 [Ex. 110] (cyclo(YRTCRG[dP][Dab]RWCYQK[dP]P); disulfide 4-11)	1.92 h	4.32 h	48 µM	0%	1.7 nM
CC(C)CN(CCC[C@@H]1NC(=O)[C@H]2CCCN2C(=O)CNC(=O)[C@H](CCCNC(=N)N)NC(=O)[C@@H]2CSSC[C@H](NC(=O)[C@H](Cc3ccc4ccccc4c3)NC(=O)[C@H](CCCNC(=N)N)NC1=O)C(=O)N[C@@H](Cc1ccc(O)cc1)C(=O)N[C@@H](CCCNC(N)=O)C(=O)N[C@@H](CCCCN)C(=O)N1CCC[C@@H]1C(=O)N1CCC[C@H]1C(=O)N[C@@H](Cc1ccc(O)cc1)C(=O)N[C@@H](CCCNC(=N)N)C(=O)N[C@@H](CCCNC(N)=O)C(=O)N2)CC(C)C [Ex. 124] (cyclo(YR[Cit]CRG[dP][X1]R[2Nal]CY[Cit]K[dP]P); disulfide 4-11)	> 5 h	> 5 h	21 µM	0%	5.9 nM

From patent publication US8895695B2, “Template-fixed beta-hairpin peptidomimetics with CXCR4 antagonizing activity” (priority 2003, dated 2014)
